Test results reported in US20250051293A1, “NOVEL OXADIAZOLE DERIVATIVE AND USE THEREOF” (CELROS BIOTECH, priority 2021, published 2025).

Experiments:
[1] = test system: MPTP-induced Parkinson's disease; assay: MPTP-induced Parkinson's disease mouse model; assay type: in vivo, mice; conditions: for MPTP-induced increase in number of microglia (Iba1+ cells) in the substantia nigra and striatum / density of Th+ fibers in the striatum / number of dopaminergic neurons (Th+ cells) in the substantia nigra: 30 mg/kg oral for 8 days; for density of Th+ fibers in the striatum / number of dopaminergic neurons (Th+ cells) in the substantia nigra / pole test T-total / pole test T-turn: compared to the vehicle-treated group; for pole test T-total / pole test T-turn: Day 6 after MPTP, 30 mg/kg oral
Procedure: To evaluate the effect of compounds of Example 1 and Example 2 on MPTP (1-methyl-4-phenyl-1,2,3,6-tetrahydropyridine hydrochloride; Sigma-Aldrich)-induced Parkinson's disease, C57BL/6 male mice (9 weeks old) were randomly divided into three groups. • saline+vehicle • MPTP+vehicle • MPTP+compound of Example 1 or […] (30 mg/kg)
To induce Parkinson's disease, mice were intraperitoneally injected with MPTP (25 mg/kg) four times at 2-hour intervals, while control mice were treated with an equal volume of saline. The compounds of Example 1 or Example 2 were dissolved in a solvent consisting of 10% DMAC (dimethyl acetamide, Sigma-Aldrich), 10% Tween 80 (Sigma-Aldrich) and 80% saline (JW Pharmaceuticals). Mice were orally administered with 30 mg/kg of the compound of Example 1 or Example 2 starting 1 day prior to MPTP injection for 8 days.
Seven days after MPTP administration (one day after the last administration of the compound of Example 1 or Example 2), experimental animals were sacrificed by perfusion with saline (JW Pharmaceuticals) followed by 10% formalin (Sigma-Aldrich), and brain tissues were obtained. The tissues were cut into 30 μm thick slices using a cryostat (Leica) and stored in an anti-freezing solution (30% sucrose, 1% polyvinylpyrrolidone, and 30% ethylene glycol in 1×PBS) at −20° C.
Anti-tyrosine hydroxylase antibody (1:2000-4000, ABCAOM) was used to detect dopaminergic neurons and anti-Iba1 antibody (1:1000, Wako) was used to measure microglia. Biotinylated goat anti-rabbit antibody (VECTOR, BA-1000) was used as a secondary antibody and ABC solution (VECTOR, BA-1000) was used. The immunoreactive sections were then incubated with 3-3′ diaminobenzidine (DAB, Dako) to change the color to brown.
For the substantia nigra, six coronal sections, one every 150 μm, between −2.80 mm and −3.80 mm bregma were used, and for the striatum, three coronal sections between +0.98 mm and +0.50 mm bregma were collected. The coronal sections were stained with anti-tyrosine hydroxylase antibody or anti-Iba1 antibody and then analyzed by counting the number of stained cells or using ImagePro plus 7.0 software.
The mice were moved to a home cage where they were placed head up in the top of a 60 cm vertical pole with a diameter of 1 cm, and were then allowed to descend themselves and stay for about 15 seconds in the home cage.
The above procedure was repeated three times, all of which were videotaped, and the time for the mouse's head to turn completely downward (T-turn) and total time to descend to the floor (T-total) were analyzed.

[2] = test system: U87; assay: Mouse model xenografted with brain tumor glioblastoma U87; assay type: in vivo, mice
Procedure: To confirm the therapeutic effect on brain tumor glioblastoma, U87 (5×10^4), a human brain tumor cell line, was xenografted into the brains of mice to establish a brain tumor model, followed by oral administration of the drugs.
Different experimental groups were evaluated for each compound.
First, with respect to the compound of Example 1, the experimental groups were divided into Vehicle (n=3) and the compound of Example 1, 50 mg/kg (n=3) and the administered with the drug orally 5 times a week 20 days after U87 xenografting.
With respect to the compound of Example 2, the experimental groups were divided into Vehicle (n=9), TMZ 5 mg/kg (Temozolomide, n=10, 2 times per week), the compound of Example 2, 50 mg/kg (n=8, 5 times per week), and combination (TMZ+the compound of Example 2, n=7), and began receiving the drug 20 days after U87 xenografting.

[3] = PAMPA-BBB assay; assay type: in vitro ADME; conditions: incubation 4 hr, pH 7.4, 25° C., U.V, read-out: Permeability Pe
Procedure: The parallel artificial membrane permeability assay (PAMPA) was performed to determine the brain barrier blood (BBB) permeability. […] For the Blank measurement, the donor buffer was dispensed into a high sensitivity UV plate at 150 μl per well and the UV values were measured (Blank sample). For the initial value measurement, the mixture in the deep well plate was dispensed 150 μl per well into the UV plate and the UV values were measured (initial sample). Next, 200 μl of the test compound mixture was dispensed onto the donor plate of the PAMPA sandwich, and the acceptor plate of the PAMPA sandwich was inverted and the membrane was coated with 5 μl of BBB-lipid solution. Then, 200 μl of acceptor sink buffer was added to each well of the acceptor plate, and the acceptor plate and donor plate were combined and incubated at 25° C. for 4 hours. […] Finally, the permeability (Pe(10^−6 cm/sec)) was analyzed using the PAMPA explore program. The experiment was performed in three replicates. The permeability of the material was analyzed by UV measurement and LC-MS/MS, the specific conditions of which are described below.

[4] = Example 1 study: 50 mg/kg orally 5 times a week

Q: What does the source list for `O=C(Nc1nnc(-c2cccc(Cl)c2)o1)c1cc(F)cc(C(F)(F)F)c1` [Example 1, N-(5-(3-chlorophenyl)-1,3,4-oxadiazol-2-yl)-3-fluoro-5-(trifluoromethyl)benzamide]?
A: MPTP-induced increase in number of microglia (Iba1+ cells) in the substantia nigra and striatum [1]: effectively reduced; density of Th+ fibers in the striatum [1]: higher; number of dopaminergic neurons (Th+ cells) in the substantia nigra [1]: higher; pole test T-total [1]: significant decrease; pole test T-turn [1]: decrease; brain tumor growth (MRI) [2, 4]: inhibition of brain tumor growth; extension of median survival compared to the vehicle group [2, 4]: 17 days; median survival ([2]; Example 1 study: 50 mg/kg orally 5 times a week from 20 days after U87 xenografting, vehicle 31 days): 48 days; Papp at 4 h, 50 μM ([3]; 50 μM): > 0.4 ×10⁻⁶ cm/s

Q: For `O=C(Nc1nnc(-c2ccccc2)o1)c1ccc(F)c(C(F)(F)F)c1` [Example 2, 4-fluoro-N-(5-phenyl-1,3,4-oxadiazol-2-yl)-3-(trifluoromethyl)benzamide], which “MPTP-induced increase in number of microglia (Iba1+ cells) in the substantia nigra and striatum” value [1] is on record?
A: Its value is “effectively reduced”.

Q: And the “density of Th+ fibers in the striatum” value [1]?
A: The value was “higher”.

Q: And the “number of dopaminergic neurons (Th+ cells) in the substantia nigra” value [1]?
A: The value was “higher”.

Q: What about the “pole test T-total” value [1] of the same compound?
A: Its value is “significant decrease”.

Q: And the “pole test T-turn” value [1]?
A: Its value is “decrease”.

Q: What about the “tumor growth rate (MRI)” value ([2]; Example 2 study: Example 2 50 mg/kg 5 times per week, TMZ 5 mg/kg 2 times per week) of the same compound?
A: The value was “inhibited the tumor growth rate”.

Q: And the median survival time ([2]; Example 2 study: Example 2 50 mg/kg 5 times per week, TMZ 5 mg/kg 2 times per week, from 20 days after xenografting, vehicle 42 days)?
A: Its median survival time is 46 days.

Q: And the Papp at 4 h, 10 μM ([3]; 10 μM)?
A: Its Papp at 4 h, 10 μM is over 0.4 ×10⁻⁶ cm/s.
